{"source": "ChEMBL document CHEMBL1153651", "about": "“Synthesis and biology of the rigidified glutamate analogue, trans-2-carboxyazetidine-3-acetic acid (t-CAA)” (Bioorg Med Chem Lett, 1996)", "key": {"Rattus norvegicus [1]": {"species": "Rattus norvegicus", "assay": "Compound was tested in vitro for binding affinity against sodium dependent [3H]glu-uptake into rat cortical synaptosomes, using [3H]-glutamate as the radioligand.", "type": "functional", "conditions": "Brain"}, "[2]": {"molecular_target": "Glutamate receptor ionotropic, AMPA (Rattus norvegicus, UniProt P19490+P19491+P19492+P19493)", "assay": "Compound was tested in vitro for binding affinity against Ionotropic glutamate receptor AMPA, using [3H]AMPA as the radioligand in rat cerebral cortical membranes.", "type": "cell membranes"}, "[3]": {"molecular_target": "T1, Metabotropic glutamate receptor 6 (Homo sapiens, UniProt O15303)", "T1 sequence (O15303 whole entry)": "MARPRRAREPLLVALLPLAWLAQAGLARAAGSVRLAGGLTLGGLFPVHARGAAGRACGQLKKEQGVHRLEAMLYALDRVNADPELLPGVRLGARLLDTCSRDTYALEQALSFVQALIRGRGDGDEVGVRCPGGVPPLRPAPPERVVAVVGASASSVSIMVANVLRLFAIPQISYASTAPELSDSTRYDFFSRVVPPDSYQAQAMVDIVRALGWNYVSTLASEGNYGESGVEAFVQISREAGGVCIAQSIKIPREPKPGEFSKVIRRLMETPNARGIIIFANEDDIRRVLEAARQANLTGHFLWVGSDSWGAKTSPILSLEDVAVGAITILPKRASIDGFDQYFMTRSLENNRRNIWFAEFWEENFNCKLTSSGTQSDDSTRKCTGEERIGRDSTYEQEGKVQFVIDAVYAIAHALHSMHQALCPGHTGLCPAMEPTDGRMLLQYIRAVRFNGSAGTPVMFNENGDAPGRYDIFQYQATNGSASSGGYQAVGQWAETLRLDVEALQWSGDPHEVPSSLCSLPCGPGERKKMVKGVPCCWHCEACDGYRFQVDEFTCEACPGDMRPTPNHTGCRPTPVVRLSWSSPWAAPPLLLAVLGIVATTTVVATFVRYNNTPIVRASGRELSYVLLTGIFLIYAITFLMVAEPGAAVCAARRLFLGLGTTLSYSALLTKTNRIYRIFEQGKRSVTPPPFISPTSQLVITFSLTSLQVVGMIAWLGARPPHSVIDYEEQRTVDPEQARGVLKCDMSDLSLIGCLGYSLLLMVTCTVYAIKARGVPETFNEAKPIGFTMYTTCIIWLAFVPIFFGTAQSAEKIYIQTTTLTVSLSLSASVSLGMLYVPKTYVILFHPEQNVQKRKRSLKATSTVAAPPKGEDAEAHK", "assay": "Compound was tested for its antagonist activity against mGluR 6 receptor in CHO cells.", "type": "functional, cell-based, Cricetulus griseus"}, "[4]": {"molecular_target": "T2, Metabotropic glutamate receptor 5 (Homo sapiens, UniProt P41594)", "assay": "Compound was tested for its agonist activity against mGluR 5a receptor in CHO cells", "type": "functional, cell-based", "conditions": "Cricetulus griseus"}, "Rattus norvegicus [5]": {"species": "Rattus norvegicus", "assay": "Compound was tested in vitro for binding affinity against calcium chloride dependent glutamate uptake site, using [3H]L-AP4 as the radioligand in rat cortical membranes.", "type": "functional"}, "[6]": {"molecular_target": "T3, Metabotropic glutamate receptor 2 (Homo sapiens, UniProt Q14416)", "assay": "Compound was tested for its agonist activity against mGluR 2 receptor in CHO cells.", "type": "functional, cell-based, Cricetulus griseus"}, "[7]": {"molecular_target": "Metabotropic glutamate receptor 1 (Homo sapiens, UniProt Q13255)", "sequence (Q13255 whole entry)": "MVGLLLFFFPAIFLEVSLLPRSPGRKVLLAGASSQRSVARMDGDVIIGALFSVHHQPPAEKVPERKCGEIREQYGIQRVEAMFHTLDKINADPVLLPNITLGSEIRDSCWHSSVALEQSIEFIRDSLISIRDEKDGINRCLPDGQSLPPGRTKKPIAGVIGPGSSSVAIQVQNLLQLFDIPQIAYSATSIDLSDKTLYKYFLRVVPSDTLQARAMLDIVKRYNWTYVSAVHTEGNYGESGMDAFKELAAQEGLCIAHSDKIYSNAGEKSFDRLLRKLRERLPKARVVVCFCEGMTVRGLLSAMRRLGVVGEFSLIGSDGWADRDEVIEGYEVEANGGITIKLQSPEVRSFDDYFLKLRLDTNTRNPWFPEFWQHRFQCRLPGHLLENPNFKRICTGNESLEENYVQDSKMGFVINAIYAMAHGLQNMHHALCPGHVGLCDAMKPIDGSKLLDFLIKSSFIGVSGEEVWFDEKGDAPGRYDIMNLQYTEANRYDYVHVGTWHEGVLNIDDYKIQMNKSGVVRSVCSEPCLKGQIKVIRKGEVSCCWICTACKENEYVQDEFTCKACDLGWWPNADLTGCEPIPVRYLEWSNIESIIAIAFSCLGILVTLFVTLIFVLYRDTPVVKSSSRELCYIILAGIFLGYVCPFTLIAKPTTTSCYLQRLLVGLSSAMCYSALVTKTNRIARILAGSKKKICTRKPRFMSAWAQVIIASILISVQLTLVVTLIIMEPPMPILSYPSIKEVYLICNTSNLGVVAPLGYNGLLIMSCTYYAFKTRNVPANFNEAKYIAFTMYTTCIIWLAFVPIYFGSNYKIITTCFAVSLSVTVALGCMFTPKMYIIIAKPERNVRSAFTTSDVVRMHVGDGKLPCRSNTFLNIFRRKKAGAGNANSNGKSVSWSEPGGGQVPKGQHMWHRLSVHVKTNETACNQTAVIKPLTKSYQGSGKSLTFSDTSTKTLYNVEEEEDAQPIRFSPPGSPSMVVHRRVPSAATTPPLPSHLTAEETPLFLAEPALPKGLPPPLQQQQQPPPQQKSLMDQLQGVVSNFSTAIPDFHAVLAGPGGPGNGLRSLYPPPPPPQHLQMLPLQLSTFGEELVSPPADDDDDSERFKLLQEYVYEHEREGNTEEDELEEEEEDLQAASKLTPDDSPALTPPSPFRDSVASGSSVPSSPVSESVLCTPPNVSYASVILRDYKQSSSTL", "assay": "Compound was tested for its agonist activity against mGluR1a receptor in CHO cells.", "type": "functional, cell-based, Cricetulus griseus"}, "[8]": {"molecular_target": "T3, Metabotropic glutamate receptor 2", "assay": "Compound was tested for its antagonist activity against mGluR 2 receptor in CHO cells.", "type": "functional, cell-based, Cricetulus griseus"}, "[9]": {"molecular_target": "Glutamate receptor ionotropic, kainate 3 (Rattus norvegicus, UniProt P42264)", "sequence (P42264 whole entry)": "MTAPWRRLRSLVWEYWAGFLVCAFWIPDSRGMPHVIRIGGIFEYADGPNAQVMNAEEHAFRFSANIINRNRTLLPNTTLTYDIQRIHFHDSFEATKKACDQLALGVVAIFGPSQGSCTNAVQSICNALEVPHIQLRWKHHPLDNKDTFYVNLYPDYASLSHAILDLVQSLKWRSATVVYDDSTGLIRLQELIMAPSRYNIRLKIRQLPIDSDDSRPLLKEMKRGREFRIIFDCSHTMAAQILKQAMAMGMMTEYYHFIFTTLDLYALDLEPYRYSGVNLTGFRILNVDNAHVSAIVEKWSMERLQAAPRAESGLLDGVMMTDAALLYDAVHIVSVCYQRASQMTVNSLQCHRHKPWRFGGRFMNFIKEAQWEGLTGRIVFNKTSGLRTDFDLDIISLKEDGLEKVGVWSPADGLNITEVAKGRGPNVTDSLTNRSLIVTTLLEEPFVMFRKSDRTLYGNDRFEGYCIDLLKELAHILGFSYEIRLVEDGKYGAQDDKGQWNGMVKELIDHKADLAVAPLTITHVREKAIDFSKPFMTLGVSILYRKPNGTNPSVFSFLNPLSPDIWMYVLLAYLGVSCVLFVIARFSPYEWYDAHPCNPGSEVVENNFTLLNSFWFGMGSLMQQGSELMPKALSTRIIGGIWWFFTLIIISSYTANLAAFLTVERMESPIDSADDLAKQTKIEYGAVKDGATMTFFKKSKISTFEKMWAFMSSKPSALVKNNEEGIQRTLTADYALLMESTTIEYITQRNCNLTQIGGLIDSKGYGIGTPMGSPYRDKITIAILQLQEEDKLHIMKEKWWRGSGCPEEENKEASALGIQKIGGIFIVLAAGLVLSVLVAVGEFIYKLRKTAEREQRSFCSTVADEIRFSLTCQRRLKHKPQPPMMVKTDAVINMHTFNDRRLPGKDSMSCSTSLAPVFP", "assay": "Compound was tested in vitro for binding affinity against Ionotropic glutamate receptor kainate using [3H]kainate as the radioligand."}, "[10]": {"molecular_target": "Metabotropic glutamate receptor 4 (Rattus norvegicus, UniProt P31423)", "sequence (P31423 whole entry)": "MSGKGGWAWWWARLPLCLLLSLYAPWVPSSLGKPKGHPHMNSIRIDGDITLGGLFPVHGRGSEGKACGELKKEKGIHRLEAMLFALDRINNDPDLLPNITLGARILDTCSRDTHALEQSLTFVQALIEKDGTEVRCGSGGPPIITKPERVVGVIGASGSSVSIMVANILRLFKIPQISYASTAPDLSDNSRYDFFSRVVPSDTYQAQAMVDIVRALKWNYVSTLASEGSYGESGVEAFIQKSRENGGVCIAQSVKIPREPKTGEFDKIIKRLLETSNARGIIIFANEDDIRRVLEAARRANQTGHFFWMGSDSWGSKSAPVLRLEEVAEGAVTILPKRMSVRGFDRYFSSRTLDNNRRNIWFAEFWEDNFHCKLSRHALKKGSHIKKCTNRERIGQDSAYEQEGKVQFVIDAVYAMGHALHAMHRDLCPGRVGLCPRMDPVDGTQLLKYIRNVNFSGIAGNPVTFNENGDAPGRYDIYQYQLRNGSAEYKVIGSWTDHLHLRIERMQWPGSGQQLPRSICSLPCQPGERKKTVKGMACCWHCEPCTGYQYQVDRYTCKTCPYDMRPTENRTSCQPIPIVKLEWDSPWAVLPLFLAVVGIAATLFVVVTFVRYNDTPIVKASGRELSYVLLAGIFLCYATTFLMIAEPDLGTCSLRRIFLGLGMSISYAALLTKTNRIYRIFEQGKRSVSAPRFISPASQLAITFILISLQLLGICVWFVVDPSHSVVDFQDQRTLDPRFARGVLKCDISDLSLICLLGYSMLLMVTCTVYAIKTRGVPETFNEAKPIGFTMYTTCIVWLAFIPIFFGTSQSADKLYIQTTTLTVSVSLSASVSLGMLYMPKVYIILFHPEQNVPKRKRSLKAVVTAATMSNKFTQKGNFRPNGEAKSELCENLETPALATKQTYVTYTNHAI", "assay": "Compound was tested in vitro for binding affinity against mGluR4a metabotropic glutamate receptor, using [3H]L-AP4 as the radioligand."}, "Glutamate NMDA receptor": {"molecular_target": "Glutamate NMDA receptor", "assay": "Compound was tested in vitro for binding affinity against NMDA receptor, using [3H]CPP as the radioligand in rat cerebral cortical membranes.", "type": "cell membranes"}, "Glutamate receptor 1": {"molecular_target": "Glutamate receptor 1 (Rattus norvegicus, UniProt P19490)", "assay": "Compound was tested in vitro for binding affinity against Ionotropic glutamate receptor AMPA, using [3H]TCP as the radioligand."}, "[11]": {"molecular_target": "Metabotropic glutamate receptor 1 (Rattus norvegicus, UniProt P23385)", "sequence (P23385 whole entry)": "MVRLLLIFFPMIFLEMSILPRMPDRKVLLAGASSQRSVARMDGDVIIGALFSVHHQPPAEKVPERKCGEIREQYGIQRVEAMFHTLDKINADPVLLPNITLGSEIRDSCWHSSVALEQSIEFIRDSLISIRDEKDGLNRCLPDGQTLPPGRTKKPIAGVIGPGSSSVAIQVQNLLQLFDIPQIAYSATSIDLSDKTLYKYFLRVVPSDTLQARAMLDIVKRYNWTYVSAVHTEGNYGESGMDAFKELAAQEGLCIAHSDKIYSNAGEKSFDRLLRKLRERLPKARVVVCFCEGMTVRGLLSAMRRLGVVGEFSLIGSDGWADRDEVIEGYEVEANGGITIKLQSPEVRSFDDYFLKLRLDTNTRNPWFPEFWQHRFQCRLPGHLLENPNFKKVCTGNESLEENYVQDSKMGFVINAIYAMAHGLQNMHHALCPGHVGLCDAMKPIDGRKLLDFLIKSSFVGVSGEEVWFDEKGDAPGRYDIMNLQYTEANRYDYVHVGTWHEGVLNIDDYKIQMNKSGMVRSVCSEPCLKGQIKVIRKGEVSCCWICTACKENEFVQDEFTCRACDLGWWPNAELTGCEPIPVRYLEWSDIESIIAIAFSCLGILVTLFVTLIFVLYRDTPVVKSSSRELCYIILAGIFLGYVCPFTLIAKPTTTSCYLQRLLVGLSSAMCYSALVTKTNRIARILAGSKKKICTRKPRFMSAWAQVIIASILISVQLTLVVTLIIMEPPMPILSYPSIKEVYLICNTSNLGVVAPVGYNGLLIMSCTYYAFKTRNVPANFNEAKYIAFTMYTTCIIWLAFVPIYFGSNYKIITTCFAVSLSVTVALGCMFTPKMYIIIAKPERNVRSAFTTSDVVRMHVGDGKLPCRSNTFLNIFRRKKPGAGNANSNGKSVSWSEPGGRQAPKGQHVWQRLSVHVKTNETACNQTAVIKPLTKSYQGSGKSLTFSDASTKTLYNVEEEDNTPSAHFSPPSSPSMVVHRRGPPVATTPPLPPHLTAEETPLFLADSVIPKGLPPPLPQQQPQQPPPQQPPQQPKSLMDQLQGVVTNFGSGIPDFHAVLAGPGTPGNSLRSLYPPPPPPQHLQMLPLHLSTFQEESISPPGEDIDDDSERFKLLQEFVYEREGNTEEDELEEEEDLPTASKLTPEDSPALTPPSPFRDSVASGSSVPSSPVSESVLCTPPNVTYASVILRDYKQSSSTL", "assay": "Compound was tested in vitro for binding affinity against mGluR1a metabotropic glutamate receptor, using [3H]glutamate as the radioligand."}, "[12]": {"molecular_target": "T1, Metabotropic glutamate receptor 6", "assay": "Compound was tested for its agonist activity against mGluR 6 receptor in CHO cells", "type": "functional, cell-based", "conditions": "Cricetulus griseus"}, "[13]": {"molecular_target": "T1, Metabotropic glutamate receptor 6", "assay": "Compound was tested for its agonist activity against mGluR 6 receptor in CHO cells.", "type": "functional, cell-based, Cricetulus griseus"}, "[14]": {"molecular_target": "T2, Metabotropic glutamate receptor 5", "assay": "Compound was tested for its agonist activity against mGluR 5a receptor in CHO cells.", "type": "functional, cell-based, Cricetulus griseus"}, "[15]": {"molecular_target": "T3, Metabotropic glutamate receptor 2", "assay": "Compound was tested for its agonist activity against mGluR 2 receptor in CHO cells", "type": "functional, cell-based", "conditions": "Cricetulus griseus"}}}
{"smiles": "O=C(O)C[C@H]1CN[C@@H]1C(=O)O", "values": [{"measurement": "IC50", "setting": "Rattus norvegicus [1]", "result": 5, "unit": "µM"}, {"measurement": "IC50", "setting": "[2]", "result": 13, "unit": "µM"}, {"measurement": "IC50", "setting": "[3]", "result": "> 300", "unit": "µM"}, {"measurement": "Max response", "setting": "[4]", "result": 95, "unit": "%"}, {"measurement": "IC50", "setting": "Rattus norvegicus [5]", "result": 33, "unit": "µM"}, {"measurement": "EC50", "setting": "[6]", "result": "> 600", "unit": "µM"}, {"measurement": "EC50", "setting": "[7]", "result": 210, "unit": "µM"}, {"measurement": "IC50", "setting": "[8]", "result": "> 600", "unit": "µM"}, {"measurement": "IC50", "setting": "[9]", "result": 700, "unit": "nM"}, {"measurement": "IC50", "setting": "[10]", "result": 315, "unit": "µM"}, {"measurement": "IC50", "setting": "Glutamate NMDA receptor", "result": 49, "unit": "µM"}, {"measurement": "IC50", "setting": "Glutamate receptor 1", "result": "> 660", "unit": "µM"}, {"measurement": "IC50", "setting": "[11]", "result": 12, "unit": "µM"}, {"measurement": "Max response", "setting": "[12]", "result": 17, "unit": "%"}, {"measurement": "inhibition", "setting": "[12]; concentration not given here", "result": 0, "unit": "%"}, {"measurement": "IC50", "setting": "[13]", "result": "> 300", "unit": "µM"}, {"measurement": "EC50", "setting": "[14]", "result": 105, "unit": "µM"}, {"measurement": "Max response", "setting": "[15]", "result": 0, "unit": "%"}, {"measurement": "inhibition", "setting": "[15]; concentration not given here", "result": 40, "unit": "%"}]}
